Source: ChEMBL document CHEMBL1144653, “The thioesterase domain from the pimaricin and erythromycin biosynthetic pathways can catalyze hydrolysis of simple thioester substrates” (Bioorg Med Chem Lett, 2007)

Tests used:
[1] = system: Streptomyces natalensis; assay: Ratio of Kcat to Km in pimaricin thioesterase expressed in Escherichia coli
[2] = system: Saccharopolyspora erythraea; assay: Ratio of Kcat to Km in 6-deoxyerythronolide B polyketide synthase thioesterase expressed in Escherichia coli

kcat/Km [1] | kcat/Km [2] | SMILES
0.02 M⁻¹ s⁻¹ | 3.6 M⁻¹ s⁻¹ | CC[C@H](O)[C@@H](C)C(=O)SCCNC(C)=O
0.04 M⁻¹ s⁻¹ | 0.47 M⁻¹ s⁻¹ | CC[C@@H](O)[C@H](C)C(=O)SCCNC(C)=O
– | 4.2 M⁻¹ s⁻¹ | CCC(=O)C(C)C(=O)SCCNC(C)=O (stereo not drawn)

More lines, now with the values behind:

SMILES | kcat/Km [1] | kcat/Km [2]
CCCC(C)C(=O)SCCNC(C)=O (stereo not drawn) | 0.24 M⁻¹ s⁻¹ | 0.17 M⁻¹ s⁻¹
CC/C=C(\C)C(=O)SCCNC(C)=O | 1.3 M⁻¹ s⁻¹ | –
